The numbers were not newly measured in patent US20090062317A1, “MEDICINAL USE OF RECEPTOR LIGANDS” (7TM PHARMA A/S, priority 2004, published 2009), which cites them from elsewhere.

The test system of the data set is rats. As to conditions: literature reports.

`CN(C)CC1CCc2cc(NC(=O)c3ccc(-c4ccc(F)cc4)cc3)ccc2C1` (centres unmarked) [Example T-226296]: the “food intake induced by i.c.v.-injected MCH” value is given as “suppress food intake”. Regarding `COCC1=C(C(=O)OC)[C@H](c2ccc(F)c(F)c2)N(C(=O)NCCCN2CCC(c3cccc(NC(C)=O)c3)CC2)C(=O)N1` [SNAP-7941], the “food intake induced by i.c.v.-injected MCH” value is listed as “suppress food intake”.
